Measurements published in patent US5571831A, “Imidazole derivative, and pharmaceutical composition” (Kureha Chemical Industry Co., Ltd., priority 1992, dated 1996).
In brackets after ≈: the same amount, converted by molar mass.

Tests used:
Experiment in all cases: Minimum inhibitory concentration (agar medium)
Assay type in all cases: cell-based
[1] = system: Candida albicans IFO 1060; conditions: IFO1060, 72 h; Candida albicans IFO 1060, 27° C., 3 days, Sabouraud dextrose agar
Protocol: (§1) The minimum inhibitory concentrations (MIC) in vitro of the compounds 1 to 3 of the present invention against microorganisms belonging to the genera Candida and Aspergillus were determined. (1) The strains of the microorganisms used were as follows. The inoculation solutions were prepared at a concentration of 1×10^6 cells/ml. 1) Candida albicans IFO 1060 (2) As the medium, a Sabouraud dextrose agar medium (Difco: dextrose 2%, agar 1.8%, not adjusted in pH) was used. The samples of the compounds to be tested were used after dissolved in dimethyl sulfoxide. The concentrations of the samples were from […]. The agar media containing the different concentrations of the compounds to be tested were inoculated with the microorganisms, using a microplanter (Sakuma Seisakusho). The microorganisms belonging to the genera Candida were cultured at 27° C. for 3 days, and the microorganisms belonging to the genus Aspergillus at 27° C. for 5 days.

[2] = system: Candida albicans IFO 1270; conditions: IFO1270, 72 h; Candida albicans IFO 1270, 27° C., 3 days, Sabouraud dextrose agar
Protocol: as §1, with “cells/ml. 2)” for “cells/ml. 1)”, “IFO 1270” for “IFO 1060”

[3] = system: Candida albicans ATCC 762; conditions: ATCC762, 72 h; Candida albicans ATCC 762, 27° C., 3 days, Sabouraud dextrose agar
Protocol: as §1, with “cells/ml. 3)” for “cells/ml. 1)”, “albicans ATCC 762” for “albicans IFO 1060”

[4] = system: Candida tropicaris IFO 1400; conditions: IFO1400, 72 h; Candida tropicaris IFO 1400, 27° C., 3 days, Sabouraud dextrose agar
Protocol: as §1, with “cells/ml. 4)” for “cells/ml. 1)”, “Candida tropicaris” for “Candida albicans”, “IFO 1400” for “IFO 1060”

Candida krusei IFO 1395 = conditions: Pichia kudriavzevii, IFO1395, 72 h; Candida krusei IFO 1395, 27° C., 3 days, Sabouraud dextrose agar
Protocol: as §1, with “cells/ml. 5)” for “cells/ml. 1)”, “Candida krusei” for “Candida albicans”, “IFO 1395” for “IFO 1060”

[5] = system: Candida parapsilosis IFO 1396; conditions: Lodderomyces parapsilosis, IFO1396, 72 h; Candida parapsilosis IFO 1396, 27° C., 3 days, Sabouraud dextrose agar
Protocol: as §1, with “cells/ml. 6)” for “cells/ml. 1)”, “Candida parapsilosis” for “Candida albicans”, “IFO 1396” for “IFO 1060”

[6] = system: Aspergillus fumigatus IFO 5840; conditions: IFO5840, 120 h; Aspergillus fumigatus IFO 5840, 27° C., 5 days, Sabouraud dextrose agar
Protocol: as §1, with “7) Aspergillus fumigatus” for “1) Candida albicans”, “5840” for “1060”

[7] = system: Aspergillus fumigatus IFO 9733; conditions: IFO9733, 120 h; Aspergillus fumigatus IFO 9733, 27° C., 5 days, Sabouraud dextrose agar
Protocol: as §1, with “8) Aspergillus fumigatus” for “1) Candida albicans”, “9733” for “1060”

MIC [1] [µg/mL] | MIC [2] [µg/mL] | MIC [3] [µg/mL] | MIC [4] [µg/mL] | MIC (Candida krusei IFO 1395) [µg/mL] | MIC [5] [µg/mL] | MIC [6] [µg/mL] | MIC [7] [µg/mL] | SMILES
50 (≈ 165 µM) | 50 (≈ 165 µM) | 50 (≈ 165 µM) | 50 (≈ 165 µM) | 50 (≈ 165 µM) | 50 (≈ 165 µM) | 50 (≈ 165 µM) | 50 (≈ 165 µM) | CC1(C)CCC(c2ccc(F)cc2)CC1(O)Cn1ccnc1 (racemic) [Compound 1, 2,2-dimethyl-5-(4-fluorophenyl)-1-(1H-imidazol-1-ylmethyl)-cyclohexane-1-ol]
50 (≈ 157 µM) | 25 (≈ 78.4 µM) | 25 (≈ 78.4 µM) | 100 (≈ 314 µM) | > 100 | > 100 | 100 (≈ 314 µM) | 100 (≈ 314 µM) | CC1(C)CCC(c2ccc(Cl)cc2)CC1(O)Cn1ccnc1 (racemic) [Compound 2, 2,2-dimethyl-5-(4-chlorophenyl)-1-(1H-imidazol-1-ylmethyl)-cyclohexane-1-ol]
50 (≈ 166 µM) | 100 (≈ 333 µM) | 50 (≈ 166 µM) | 50 (≈ 166 µM) | 200 (≈ 666 µM) | 200 (≈ 666 µM) | 200 (≈ 666 µM) | 200 (≈ 666 µM) | CC1(C)CC[C@@H](c2ccc(O)cc2)C[C@@]1(O)Cn1ccnc1 (relative stereo) [Compound 3, 2,2-dimethyl-5-(4-hydroxyphenyl)-1-(1H-imidazoly-1-yl-methyl)-cyclohexane-1-ol]
200 (≈ 729 µM) | 200 (≈ 729 µM) | 200 (≈ 729 µM) | > 400 | > 400 | > 400 | > 400 | > 400 | OC1(Cn2ccnc2)CCCC(c2ccc(F)cc2)C1 (centres unmarked) [Compound C, 3-(4-fluorophenyl)-1-(1H-imidazol-1-ylmethyl)-cyclohexane-1-ol, reference compound]
